Legend:
[1] = test system: K. pneumoniae K66-45 (NDM-1); experiment: MIC determination of meropenem with zinc chelator at varying zinc concentrations in the medium (Example 31); assay type: cell-based, Klebsiella pneumoniae
Experimental: An experiment was conducted to determine the Minimal Inhibitory Concentration (MIC) of meropenem (MEM) in combination with the zinc chelator according to Example 26 of WO 2018/033719 at varying concentrations of zinc in the medium. The medium was a Mueller Hinton broth from Thermo Fischer. The zinc content was measured as 5.6 μM using ICP-MS. The concentration of zinc in the plasma of healthy animals has been determined to be close to this value. In infectious tissue, the zinc concentration is below the limit of detection (see, for example Bilinskaya et al., Am. Soc. For Microbiology (2020), 58, pages 1-8). Zinc sulfate was then added to this broth to obtain three further concentrations: 15.6 μM, 25.6 μM and 35.6 μM of zinc, keeping all other parameters constant.
As a model bacterial strain for this experiment, the MIC of MEM vs. K. pneumoniae K66-45 (NDM-1) was then determined in broth containing the four concentrations of zinc following the protocol given in Example 1. The EUCAST MIC value for MEM alone (EUCAST: standardization organization for MIC values of antibiotics) is 4-8 μM, meaning that if a bacterial strain is inhibited at lower concentrations than the MIC value, the bacterial strain is sensitive(S) to MEM. Correspondingly, if the bacterial strain is not inhibited at MIC or lower, the strain is resistant (R). If the inhibition is within the MIC range 4-8 μM, the resistance is intermediate (I).

[2] = test system: bacteria which rely on SBLs; conditions: with MEM; cited from earlier work
bacterial strain = experiment: MIC checkerboard assays, Examples 2 to 30 overall; assay type: cell-based
Experimental: Thus, in most of the experiments, a Fractional Inhibitory Concentration Index (FICI) could not be calculated, and the conclusion of synergy was made through visual reading of the bacterial growth in the wells in the combination experiment.
Antimicrobial susceptibility testing (AST) by broth microdilution (MIC determination) was performed according to The European Committee on Antimicrobial Susceptibility Testing (EUCAST) guidelines (see Reading guide for broth microdilution Version 5.0, 2024: https://www.eucast.org).
Sterile clear round bottom polystyrene (non-treated) 96-well microplates (Corning 3788) were used for making serial two-fold dilutions of the antibiotic and the sBLI in cation-adjusted Mueller Hinton II broth (caMHB; Thermo Scientific, T3462, containing 29.4 μM Zn^2+), across the columns of the microtiter plate (256-0.06 μg/mL; columns 1-12). The checkerboard plates were all made by keeping the sBLI at a fixed ratio relative to antibiotic (absolute concentrations of each, in μg/mL) to all wells containing sample in each plate. Additionally, a set of samples was included in each test plate, where the zinc chelator was added, at various fixed concentrations, of 16 μg/mL, 8 μg/mL and/or 4 μg/mL (as specified in each Example). All sample wells contained growth medium (caMHB), and inoculated bacteria at a final inoculum between 3-7×10^5 CFU/mL. […]

## CN(C[C@H](O)[C@@H](O)[C@H](O)[C@H](O)CO)C(=O)c1ccc(CN(Cc2ccccn2)Cc2ccccn2)nc1 [zinc chelator]
[1]; printed: "at 4-8 μM when used tested at a concentration 4 μM", with MEM
  sensitivity of the strain: sensitive
[1]; zinc chelator 16 μM with MEM, highest concentration of zinc (35.6 μM)
  effect against the bacterial strain: ineffective
[2]
  effect of combination: no effect
Bacterial strain
  intrinsic antibiotic effect: neither the zinc chelator nor the sBLI have intrinsic antibiotic effect

From patent US20260306526A1, “COMBINATION THERAPY FOR BACTERIAL INFECTIONS COMPRISING ZINC-CHELATOR, BETA-LACTAM ANTIBIOTIC AND SERINE BETA-LACTAMASE INHIBITOR” (priority 2023, published 2026)
